1 molecule from paper PMC5588548, “Suramin Inhibits Osteoarthritic Cartilage Degradation by Increasing Extracellular Levels of Chondroprotective Tissue Inhibitor of Metalloproteinases 3” (Molecular Pharmacology, 2017) can be followed below.

This data set has as its system HTB94 chondrosarcoma cells. The data set can be described thus: Cell viability assay (MTS), HTB94 cells. The class given is cell-based. To be noted: suramin 0–250 µg/ml, 72 hours. How it is done: HTB94 chondrosarcoma cells or human OA chondrocytes (10^3 cells per well in 96-well plates) were plated overnight in DMEM with 10% FCS. Cells were washed in serum-free cartilage medium and treated for 48–72 hours with suramin (0–250 µg/ml) or sodium nitroprusside (10 mM) as a control to induce cell death. Cell viability was then assessed using the 3-(4,5-dimethylthiazol-2-yl)-5-(3-carboxymethoxyphenyl)-2-(4-sulfophenyl)-2H-tetrazolium CellTiter Cell Proliferation Assay (Promega) according to the manufacturer’s instructions (mean ± S.D., n = 3).

`Cc1ccc(C(=O)Nc2ccc(S(=O)(=O)O)c3cc(S(=O)(=O)O)cc(S(=O)(=O)O)c23)cc1NC(=O)c1cccc(NC(=O)Nc2cccc(C(=O)Nc3cc(C(=O)Nc4ccc(S(=O)(=O)O)c5cc(S(=O)(=O)O)cc(S(=O)(=O)O)c45)ccc3C)c2)c1` [suramin]: the “cell viability (MTS)” value is recorded as “no effect”.
